Series [1] has as its target T1, human MC4 receptor (Homo sapiens, UniProt P32245).
T1 construct: purchased Biolinks Co; host or cells: HEK-293 cell membranes
Description: MC4 receptor binding assay. As to conditions: HEK-293 cell membranes expressing human MC4 receptor; [125I]Nle4-D-Phe7-α-MSH 0.2 nM; 25° C., 120 minutes. Here is the method:
Experiment 1 [MC4 Receptor Binding Assay]
MC4 receptor binding assay was carried out according to the method described in Pharmacology & Taxicology, 79, 161-165, 1996, HEK-293 cell membranes expressing the human MC4 receptor were purchased from Biolinks Co. The cell membranes were homogenized in a 50 mM Tris hydrochloric acid buffer solution (pH 7.4) containing 2 mM ethylenediamine tetraacetic acid, 10 mM calcium chloride and 100 μM phenylmethanesulfonyl-fluoride. The homogenate was centrifuged at 48,000×g for 20 minutes at 4° C. The precipitate obtained by centrifugation was again homogenized in the same buffer solution, and the homogenate was centrifuged at 48,000×g for 20 minutes at 4° C. This procedure was repeated twice. The precipitate was suspended in 50 mM Tris hydrochloric acid buffer solution (pH 7.4) containing 2 mM ethylenediamine tetraacetic acid, 10 mM calcium chloride, 100 μM phenylmethanesulfonylfluoride and 0.1% bovine serum albumin to adjust to a protein concentration of 100 μg/ml to give a crude membrane preparation which was used for the binding assay. […] The radioactivity on the filter paper was measured in a gamma-counter. […] The IC50 value was calculated from the inhibition curve in the concentration range of 10^−9-10^−5.

The test system of series [2] is olfactory bulbectomized rats. The series can be described thus: Anti-depressant action in olfactory bulbectomized rats (open field). Conditions: subcutaneous 1 mg/kg, 3 mg/kg or 10 mg/kg once a day for 2 weeks; test 24 hours after final administration; 3 minutes; FIG. 4. The class given is in vivo, rat. From the text: Anti-depressant action of Compound 4 in Table 1 in olfactory bulbectomized rats was studied. Male SD rats weighing 220 to 240 g (Charles River Japan Inc.) were used. Rats were anesthetized with sodium pentobarbital, the olfactory bulbs were removed by suction using a metal pipe linked to a water aspirator. Two weeks after the removal of the olfactory bulbs, rats were divided into 10 to 11 animals for each group. The rats of one group were subcutaneously administered once a day for 2 weeks with the test drug which was prepared by dissolving a predetermined amount of the test drug in saline for injection and adding 0.5 M aqueous sodium hydroxide solution to adjust to pH 4-5. Twenty four hours after the final administration, the rats were placed in the center of a circular open field apparatus (70 cm diameter 25 blocks), and the number of crossings among blocks during 3 minutes was counted.

Series [3] relates to Male SD rats. Description: Anti-anxiety action in Vogel test (Conflict test) in rats. As to conditions: subcutaneous 1 mg/kg, 3 mg/kg or 10 mg/kg, 30 minutes before test; electric shock 1.0 mA; 3 minutes; FIG. 2. Type of series: in vivo, rat. Here is the method: Anti-anxiety action of Compound 4 in Table 1 in Vogel test (Conflict test) in rats was studied.
Male SD rats weighing 220 to 240 g (Charles River Japan Inc.) were used. Rats deprived of drinking water for 48 hours were divided into 10 animals for each group. To rats of group to be administered with the test compound was subcutaneously administered the test compound which was prepared by dissolving a predetermined amount of Compound 4 in Table 1 in saline for injection and adding 0.5 M aqueous sodium hydroxide solution to adjust to pH 4-5. Thirty minutes after the administration, rats were placed in a apparatus for the test, and drinking behaviors during the time of free access to drinking water for 3 minutes were measured. During the time of free access to drinking water, an electric shock (1.0 mA) was released, every 2 seconds of cumulative licking time to the drinking nozzle. The evaluation of this experiment was carried out using the number of the electric shocks.

Series [4] has as its system recombinant human melanocortin receptors. The series can be described thus: Antagonism in recombinant human melanocortin receptors.
Series [5] concerns Male SD rats. Description: Anti-anxiety action in forced swim stress-induced anxiety model of rats (elevated plus-maze test). Type of series: in vivo, rat. Conditions: subcutaneous 0.3 mg/kg, 1 mg/kg or 3 mg/kg, 30 minutes before 2-minute forced swim stress, 5-minute period, FIG. 3. Here is the method:
Anti-anxiety action of Compound 4 in Table 1 in forced swim stress-induced anxiety model of rats was studied.
Male SD rats weighing 220 to 240 g (Charles River Japan Inc.) were used. Rats were divided into 10 animals for each group. To rats of group to be administered with the test compound was subcutaneously administered the test compound which was prepared by dissolving a predetermined amount of the test drug in saline for injection and adding 0.5 M aqueous sodium hydroxide solution to adjust to pH 4-5. Thirty minutes after the administration, rats were exposed to a forced swim stress by placing in a black cylinder (20 cm internal diameter, 40 cm high) containing 25 cm deep of water maintained at 25° C. Duration of the forced swim stress was 2 minutes, and the anti-anxiety action was studied by the elevated plus-maze test, which was carried out 5 minutes after the forced swim stress.
The elevated plus-maze used for the test consisted of open arms (10 cm wide, 50 cm long) and close arms (10 cm wide, 50 cm long), and the open arms and the enclosed arms were covered with 1 cm-high and 40 cm-high transparent Plexiglas, respectively. The plus-maze was placed in 50 cm high from the floor. Luminosity at the center of the maze was 40 lux. […] The amount of time spent in open arms of the maze was recorded during a 5-minute period.

Series [6] concerns Male SD rats. Description: Anxiogenic-like activity in Vogel test in rat (Proconflict test). Type of series: in vivo. Conditions: intracerebroventricular administration, 30 minutes before test; electric shock 0.4 mA; 3 minutes; FIG. 1. Here is the method: Anxiogenic-like activity inducing action by α-MSH and MTII in Vogel test in rat (Proconflict test) was studied.
α-MSH and MTII were purchased from Peninsula Laboratories. Male SD rats weighing 220 to 240 g (Charles River Japan Inc.) were used for animals. Rats deprived of drinking water for 48 hours were divided into 5 animals for each group. The test compound was administered to rats intracerbroventricularly at 10 μl/2 min. of the test compound which was prepared by dissolving a predetermined amount of α-MSH or MTII in saline containing 0.1% bovine serum albumin. To control rats which were not administered test compound, saline containing 0.1% bovine serum albumin was administered intracerebroventricularly at 10 μl/2 min. Thirty minutes after the administration, rats were placed in a apparatus for the test, and drinking behaviors during the time of free access to drinking water for 3 minutes were measured. During the time of free access to drinking water, an electric shock (0.4 mA) was released, every 2 seconds of cumulative licking time to the drinking nozzle. The evaluation of this experiment was carried out using the number of the electric shocks.

The source of these data is US6949552B2, “Remedial agent for anxiety neurosis or depression and piperazine derivative” (Taisho Pharmaceutical Co., Ltd., priority 2000, dated 2005).

Structures can show the parent of a compound that is named as a salt.

T1 sequence (P32245 whole entry): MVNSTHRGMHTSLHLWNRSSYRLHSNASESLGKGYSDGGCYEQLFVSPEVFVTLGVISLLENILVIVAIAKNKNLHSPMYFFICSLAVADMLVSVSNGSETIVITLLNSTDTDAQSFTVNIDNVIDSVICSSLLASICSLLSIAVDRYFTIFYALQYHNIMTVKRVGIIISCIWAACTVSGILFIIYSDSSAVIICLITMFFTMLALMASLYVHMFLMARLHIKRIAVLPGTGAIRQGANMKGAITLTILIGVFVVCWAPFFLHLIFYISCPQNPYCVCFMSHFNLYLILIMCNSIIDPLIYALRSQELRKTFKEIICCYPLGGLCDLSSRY

As usually defined, the melting point is the temperature of the solid-liquid transition. As to `CC(C)N1CCN(C(CN2CCN(CCCCc3cccc4ccccc34)CC2)c2ccc(F)cc2)CC1.O=C(O)/C=C\C(=O)O.O=C(O)/C=C\C(=O)O.O=C(O)/C=C\C(=O)O` (stereo not shown), the melting point was 127 to 129 °C.

`N=C(N)N1CCN(C(CN2CCN(CCCCc3cccc4ccccc34)CC2)c2ccc(F)cc2)CC1.O=C(O)/C=C\C(=O)O.O=C(O)/C=C\C(=O)O.O=C(O)/C=C\C(=O)O` (stereo not shown) displayed a melting point of 171 to 173 °C.

The compound `COc1ccc(C(CN2CCN(CCCCc3cccc4ccccc34)CC2)N2CCN(C)CC2)cc1.O=C(O)/C=C\C(=O)O.O=C(O)/C=C\C(=O)O.O=C(O)/C=C\C(=O)O` (stereo not shown) had a melting point of 138 to 140 °C.

In turn, `CN1CCN(C(CN2CCN(CCCCc3cccc4ccccc34)CC2)c2ccc(N)cc2)CC1.O=C(O)/C=C\C(=O)O.O=C(O)/C=C\C(=O)O.O=C(O)/C=C\C(=O)O` (stereo not shown) showed a melting point of 152 to 154 °C.

`CN1CCN(C(CN2CCN(CCCCc3noc4cc(F)ccc34)CC2)c2ccc(F)cc2)CC1.O=C(O)/C=C\C(=O)O.O=C(O)/C=C\C(=O)O.O=C(O)/C=C\C(=O)O` (stereo not shown) yielded a melting point of 170 to 173 °C.

`CN1CCN(C(CN2CCN(CCCCc3cccc4ccccc34)CC2)c2ccc(F)cc2)CC1.Cl` (stereo not shown) yielded a melting point of 193 to 195 °C.

For `CC(C)Oc1ccc2ccccc2c1CCCCN1CCN(CC(c2ccc(F)cc2)N2CCN(C(C)C)CC2)CC1.O=C(O)/C=C\C(=O)O.O=C(O)/C=C\C(=O)O.O=C(O)/C=C\C(=O)O` (stereo not shown), the melting point was in the range of 167 to 169 °C.

The compound `COc1ccc2ccccc2c1CCCCN1CCN(CC(c2ccc(F)cc2)N2CCN(C(C)C)CC2)CC1.Cl.Cl.Cl.Cl` (stereo not shown) showed a melting point of 183 to 185 °C.

Consider `COc1ccc2ccccc2c1CCCCN1CCN(CC(c2ccc(F)cc2)C2CCN(C(C)C)CC2)CC1.Cl.Cl.Cl` (stereo not shown), for which the melting point is 233 to 235 °C.

As to `CN1CCC(O)(C(CN2CCN(CCCCc3cccc4ccccc34)CC2)c2ccc(F)cc2)CC1.Cl.Cl.Cl` (stereo not shown), the melting point was in the range of 156 to 160 °C.

The term IC50 denotes the point on the concentration scale where inhibition reaches its midpoint. Read a low IC50 as higher potency. Consider `CN1CCN(C(CN2CCN(CCCCc3cccc4ccccc34)CC2)c2ccc(F)cc2)CC1` (single isomer, unassigned; (-)) [Compound 6, (−)-1-[2-(4-Fluorophenyl)-2-(4-methylpiperazino)ethyl]-4-[4-naphthalen-1-yl-butyl]piperazine hydrochloride], for which, in series [1], the IC50 is 90 nM.

`CN1CCN(C(CN2CCN(CCCCc3cccc4ccccc34)CC2)c2ccc(F)cc2)CC1.Cl.Cl.Cl.Cl` (stereo not shown) [Compound 4, 1-[2-(4-fluorophenyl)-2-(4-methylpiperazino)ethyl]-4-(4-naphthalen-1-yl-butyl)piperazine tetrahydrochloride]: the melting point is 193 to 195 °C. Further, the “increased number of crossings among blocks in the open field” value in series [2] is listed as “significantly, dose-dependently antagonized”. Also, the “decreased number of times of drinking water (number of the electric shocks) caused by electric shock” value in series [3] was “significantly, dose-dependently antagonized”. Moreover, the “action in recombinant human melanocortin receptors (selectivity)” value in series [4] is reported as “high selective antagonist”. This compound had an IC50 in series [1] of 164 nM. Further, the “decreased amount of time spent in open arms after forced swim stress” value in series [5] is “significantly, dose-dependently antagonized”.

Turning to MTII, in series [6], the “number of times of drinking water (number of the electric shocks) in comparison with the control group” value is given as “dose-dependently, significantly decreased”.

“α-MSH (Ac-SYSMEHFRWGKPV-NH2; ends and bridges not checked; UniProt P01189 138-150, looked up) [melanocyte stimulating hormone (melanocortin produced from POMC), purchased from Peninsula Laboratories]”: the “number of times of drinking water (number of the electric shocks) in comparison with the control group” value in series [6] is on record as “dose-dependently, significantly decreased”.
